# Experimental data taken from patent publication US9089605B2, “Quinone derivatives, pharmaceutical compositions, and uses thereof” (Indiana University Research and Technology Corporation, priority 2007, dated 2015).
# Tests used:
# [1] = molecular target: Ape1 (Homo sapiens, UniProt P27695); experiment: Enzymatic redox assay (EMSA, AP-1 DNA binding); assay type: biochemical; conditions: for IC50: EMSA, reduced Ape1, oxidized nuclear extracts (Hey-C2 cells), AP-1 DNA probe; for activity compared with the original carboxylic acids: hydroxyethylamides of 1 and 43a
# [2] = tested on: cells; experiment: Growth inhibition assay (MTS); assay type: cell-based; conditions: MTS, compound treatment 24 or 72 h; read-out: Cell Killing (GI50)
# Protocol: Growth inhibitory data was also collected for all the compounds tested in the redox assay. Following the procedure of Fishel et al, cells were aliquoted into 96 well plates at a concentration of 2-4,000 cells/well in triplicate and allowed to adhere overnight. Cells were then treated with compound for either 24 or 72 h. 3-(4-5-Dimethylthiazol-2-yl)-5-(3-carboxymethoxyphenyl)-2-(4-sulfophenyl)-2H-tetrazolium salt (MTS) was added to the cells following compound treatment and the cells were incubated for an additional 4 hours at 37° C. After incubation with MTS the plates were measured for absorbance at 490 nm. The values were standardized to wells containing media alone.
# Ape1, sequence (P27695 whole entry): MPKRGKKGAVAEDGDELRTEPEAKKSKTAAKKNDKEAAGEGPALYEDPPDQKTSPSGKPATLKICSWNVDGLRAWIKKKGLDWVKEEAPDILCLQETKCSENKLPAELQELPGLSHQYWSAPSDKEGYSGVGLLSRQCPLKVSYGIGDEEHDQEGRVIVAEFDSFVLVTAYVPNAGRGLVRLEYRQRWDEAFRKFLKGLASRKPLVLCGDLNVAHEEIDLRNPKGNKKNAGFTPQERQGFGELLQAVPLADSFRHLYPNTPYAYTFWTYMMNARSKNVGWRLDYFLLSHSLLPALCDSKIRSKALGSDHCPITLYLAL
melting point,IC50 [1],Structure (SMILES),GI50 [2],activity compared with the original carboxylic acids [1]
–,4 µM,"CC1(C(=O)O)OC1C1=C(Cl)C(=O)c2ccccc2C1=O (mixture of isomers) [Compound 71, 3-(3-chloro-1,4-naphthoquinon-2-yl)-2-epoxy-2-methylpropionic acid]",10 µM,–
–,5 µM,"CC(CC1=C(Br)C(=O)c2ccccc2C1=O)C(=O)O (racemic) [Compound 69b, (2R/S)-3-(3-bromo-1,4-naphthoquinon-2-yl)-2-methylpropionic acid]",15 µM,–
–,–,"CCCCCCCCC/C(=C\C1=C(C)C(=O)C(OC)=C(OC)C1=O)C(=O)O [Compound 1, (E)-3-(4,5-dimethoxy-2-methyl-3,6-dioxocyclohexa-1,4-dienyl)-2-nonylpropenoic acid, reference compound]",35 µM,–
–,40 µM,"COC1=C(OC)C(=O)C(/C=C/C(=O)O)=C(C)C1=O [Compound 10a, (E)-3-(4,5-dimethoxy-2-methyl-3,6-dioxocyclohexa-1,4-dienyl)-propenoic acid]",250 µM,–
124 to 131 °C,–,"CC/C(=C\C1=C(C)C(=O)C(OC)=C(OC)C1=O)C(=O)O [Compound 10c, (E)-3-(4,5-dimethoxy-2-methyl-3,6-dioxocyclohexa-1,4-dienyl)-2-ethylpropenoic acid]",–,–
95 to 99 °C,–,"CCC/C(=C\C1=C(C)C(=O)C(OC)=C(OC)C1=O)C(=O)O [Compound 10d, (E)-3-(4,5-dimethoxy-2-methyl-3,6-dioxocyclohexa-1,4-dienyl)-2-propylpropenoic acid]",–,–
–,2.5 µM,"C/C(=C\C1=CC(=O)c2ccccc2C1=O)C(=O)O [Compound 30a, (E)-3-(1,4-naphthoquinon-2-yl)-2-methylpropenoic acid]",20 µM,–
156 to 160 °C,–,"CCC/C(=C\C1=CC(=O)c2ccccc2C1=O)C(=O)O [Compound 30b, (E)-3-(1,4-naphthoquinon-2-yl)-2-propylpropenoic acid]",–,–
64 to 66 °C,–,"CCCCCCCCC/C(=C\C1=C(C)C(=O)c2ccccc2C1=O)C(=O)O [Compound 35c, (E)-3-(3-methyl-1,4-naphthoquinon-2-yl)-2-nonylpropenoic acid]",–,–
–,2 µM,"C/C(=C\C1=C(Br)C(=O)c2ccccc2C1=O)C(=O)O [Compound 39a, (E)-3-(3-bromo-1,4-naphthoquinon-2-yl)-2-methylpropenoic acid]",12.5 µM,–
–,4 µM,"C/C(=C\C1=C(F)C(=O)c2ccccc2C1=O)C(=O)O [Compound 52, (E)-3-(3-fluoro-1,4-naphthoquinon-2-yl)-2-methylpropenoic acid]",50 µM,–
–,10 µM,"CCCCCCCCC/C(=C\C1=C(C)C(=O)C(OC)=C(OC)C1=O)C(=O)NCCO [Compound 72, (E)-N-(2-hydroxyethyl)-3-(3,4-dimethoxy-2-methyl-3,6-dioxocyclohexa-1,4-dienyl)-2-nonylpropenamide]",35 µM,comparable in activity to the original carboxylic acids
–,–,"C/C(=C\C1=C(Cl)C(=O)c2ccccc2C1=O)C(=O)NCCO [Compound 73, (E)-N-(2-hydroxyethyl)-3-(3-chloro-1,4-dioxonaphthoquinon-2-yl)-2-methylpropenamide]",7.5 µM,comparable in activity to the original carboxylic acids
–,1 µM,COC(=O)/C(C)=C/C1=C(Cl)C(=O)c2ccccc2C1=O [Compound E-44a],17.5 µM,–
–,2 µM,"COC(=O)/C(C)=C\C1=C(Cl)C(=O)c2ccccc2C1=O [Compound Z-44a, Methyl (2Z)-3-(3-chloro-1,4-naphthoquinon-2-yl)-2-methylpropenoate]",20 µM,–

Structure (SMILES),melting point,IC50 [1],GI50 [2],activity compared with the original carboxylic acids [1]
"C[C@@H]1NC(=O)N[C@@H]1CCCCCC(=O)NCCCCCCNC(=O)OC(C)(C)C (hydrate or solvate) [Compound 111, N—(N′-tert-butoxycarbonyl-6-aminohexyl)-6-[(4R,5S)-5-methyl-imidazolidin-2-on-4-yl]hexanamide]",85 to 87 °C,–,–,–
